Measurements taken from ChEMBL document CHEMBL2073965, “Kinetic analysis of the primary active transport of conjugated metabolites across the bile canalicular membrane: comparative study of S-(2,4-dinitrophenyl)-glutathione and 6-hydroxy-5,7-dimethyl-2-methylamino-4-(3-pyridylmethyl)benzothiazole glucuronide” (J Pharmacol Exp Ther, 1997).

Columns and labels:
Assay type in all cases: functional, cell membranes, Sprague-Dawley, Bile canalicular membrane vesicle
[1] = molecular target: T1, ATP-binding cassette sub-family C member 2 (Rattus norvegicus, UniProt Q63120); assay: TP_TRANSPORTER: inhibition of DNP-SG uptake in bile canalicular membrane vesicles from SD rat
[2] = molecular target: T1, ATP-binding cassette sub-family C member 2; assay: TP_TRANSPORTER: inhibition of DNP-SG uptake (DNP-SG: 1 uM, 4MUG: 500 uM) in bile canalicular membrane vesicles from SD rat
[3] = substrate: CNc1nc2c(Cc3cccnc3)c(C)c(O[C@@H]3O[C@H](C(=O)O)[C@@H](O)[C@H](O)[C@H]3O)c(C)c2s1; assay: (§1) TP_TRANSPORTER: uptake in bile canalicular membrane vesicles from SD rat
[4] = substrate: N[C@@H](CCC(=O)N[C@H](CSc1ccc([N+](=O)[O-])cc1[N+](=O)[O-])C(=O)NCC(=O)O)C(=O)O; assay: as §1

CNc1nc2c(Cc3cccnc3)c(C)c(O[C@@H]3O[C@H](C(=O)O)[C@@H](O)[C@H](O)[C@H]3O)c(C)c2s1 [E3040 GLUCURONIDE]
Ki [1]: 3.84 µM

O=C(O)[C@H]1O[C@@H](OCc2cc(=O)oc3cc(O)ccc23)[C@H](O)[C@@H](O)[C@@H]1O
Activity [2]: inhibitor [+]

B1: ATP-binding cassette sub-family C member 2 (Rattus norvegicus) (protein)
chain: MDKFCNSTFWDLSLLESPEADLPLCFEQTVLVWIPLGFLWLLAPWQLYSVYRSRTKRSSITKFYLAKQVFVVFLLILAAIDLSLALTEDTGQATVPPVRYTNPILYLCTWLLVLAVQHSRQWCVRKNSWFLSLFWILSVLCGVFQFQTLIRALLKDSKSNMAYSYLFFVSYGFQIVLLILTAFSGPSDSTQTPSVTASFLSSITFSWYDRTVLKGYKHPLTLEDVWDIDEGFKTRSVTSKFEAAMTKDLQKARQAFQRRLQKSQRKPEATLHGLNKKQSQSQDVLVLEEAKKKSEKTTKDYPKSWLIKSLFKTFHVVILKSFILKLIHDLLVFLNPQLLKLLIGFVKSSNSYVWFGYICAILMFAVTLIQSFCLQSYFQHCFVLGMCVRTTVMSSIYKKALTLSNLARKQYTIGETVNLMSVDSQKLMDATNYMQLVWSSVIQITLSIFFLWRELGPSILAGVGVMVLLIPVNGVLATKIRNIQVQNMKNKDKRLKIMNEILSGIKILKYFAWEPSFQEQVQGIRKKELKNLLRFGQLQSLLIFILQITPILVSVVTFSVYVLVDSANVLNAEKAFTSITLFNILRFPLSMLPMVTSSILQASVSVDRLERYLGGDDLDTSAIRRVSNFDKAVKFSEASFTWDPDLEATIQDVNLDIKPGQLVAVVGTVGSGKSSLVSAMLGEMENVHGHITIQGSTAYVPQQSWIQNGTIKDNILFGSEYNEKKYQQVLKACALLPDLEILPGGDMAEIGEKGINLSGGQKQRVSLARAAYQDADIYILDDPLSAVDAHVGKHIFNKVVGPNGLLAGKTRIFVTHGIHFLPQVDEIVVLGKGTILEKGSYRDLLDKKGVFARNWKTFMKHSGPEGEATVNNDSEAEDDDDGLIPTMEEIPEDAASLAMRRENSLRRTLSRSSRSSSRRGKSLKNSLKIKNVNVLKEKEKEVEGQKLIKKEFVETGKVKFSIYLKYLQAVGWWSILFIILFYGLNNVAFIGSNLWLSAWTSDSDNLNGTNNSSSHRDMRIGVFGALGLAQGICLLISTLWSIYACRNASKALHGQLLTNILRAPMRFFDTTPTGRIVNRFSGDISTVDDLLPQTLRSWMMCFFGIAGTLVMICMATPVFAIIIIPLSILYISVQVFYVATSRQLRRLDSVTKSPIYSHFSETVTGLPIIRAFEHQQRFLAWNEKQIDINQKCVFSWITSNRWLAIRLELVGNLVVFCSALLLVIYRKTLTGDVVGFVLSNALNITQTLNWLVRMTSEAETNIVAVERISEYINVENEAPWVTDKRPPADWPRHGEIQFNNYQVRYRPELDLVLKGITCNIKSGEKVGVVGRTGAGKSSLTNCLFRILESAGGQIIIDGIDVASIGLHDLRERLTIIPQDPILFSGSLRMNLDPFNKYSDEEVWRALELAHLRSFVSGLQLGLLSEVTEGGDNLSIGQRQLLCLGRAVLRKSKILVLDEATAAVDLETDSLIQTTIRKEFSQCTVITIAHRLHTIMDSDKIMVLDNGKIVEYGSPEELLSNRGSFYLMAKEAGIENVNHTEL
Km [3]: 5.7 µM
Km [4]: 17.6 µM
